Key:
HT-29 [1] = assay: Antitumor activity against human HT-29 cells xenografted in mouse assessed as tumor volume at 3 mg/kg, iv dosed three times per week to the end of treatment measured on day 10 (reference value: 386 +/- 77 mm3); type: functional
HT-29 [2] = assay: Antitumor activity against human HT-29 cells xenografted in mouse assessed as tumor volume at 3 mg/kg, iv dosed three times per week to the end of treatment measured on day 14 (reference value: 677 +/- 115 mm3); type: functional
HT-29 [3] = assay: Antitumor activity against human HT-29 cells xenografted in mouse assessed as tumor volume at 3 mg/kg, iv dosed three times per week to the end of treatment measured on day 17 (reference value: 807 +/- 197 mm3); type: functional
HT-29 [4] = assay: Antitumor activity against human HT-29 cells xenografted in mouse assessed as tumor volume at 3 mg/kg, iv dosed three times per week to the end of treatment measured on day 21 (reference value: 1272+/- 273 mm3); type: functional
HT-29 [5] = assay: Antitumor activity against human HT-29 cells xenografted in mouse assessed as tumor volume at 0.5 mg/kg, iv dosed three times per week to the end of treatment measured on day 3 (reference value: 168 +/- 46 mm3); type: functional
HT-29 [6] = assay: Antitumor activity against human HT-29 cells xenografted in mouse assessed as tumor volume at 0.5 mg/kg, iv dosed three times per week to the end of treatment measured on day 7 (reference value: 229 +/- 57 mm3); type: functional
HT-29 [7] = assay: Antitumor activity against human HT-29 cells xenografted in mouse assessed as tumor volume at 0.5 mg/kg, iv dosed three times per week to the end of treatment measured on day 10 (reference value: 386 +/- 77 mm3); type: functional
HT-29 [8] = assay: Antitumor activity against human HT-29 cells xenografted in mouse assessed as tumor volume at 0.5 mg/kg, iv dosed three times per week to the end of treatment measured on day 14 (reference value: 677 +/- 115 mm3); type: functional
HT-29 [9] = assay: Antitumor activity against human HT-29 cells xenografted in mouse assessed as tumor volume at 0.5 mg/kg, iv dosed three times per week to the end of treatment measured on day 17 (reference value: 807 +/- 197 mm3); type: functional
HT-29 [10] = assay: Antitumor activity against human HT-29 cells xenografted in mouse assessed as tumor volume at 0.5 mg/kg, iv dosed three times per week to the end of treatment measured on day 21 (reference value: 1272+/- 273 mm3); type: functional
Mus musculus [11] = assay: Toxicity in human HT-29 cells xenografted mouse assessed as body weight level at 3 mg/kg, iv dosed three times per week to the end of treatment measured on day 3 (reference value: 20.7 +/- 1.2 g); type: organism-based; set-up: dose 3 mg/kg, route intravenous; details: in vivo
Mus musculus [12] = assay: Toxicity in human HT-29 cells xenografted mouse assessed as body weight level at 3 mg/kg, iv dosed three times per week to the end of treatment measured on day 7 (reference value: 21.7 +/- 1 g); type: organism-based; set-up: dose 3 mg/kg, route intravenous; details: in vivo
Mus musculus [13] = assay: Toxicity in human HT-29 cells xenografted mouse assessed as body weight level at 3 mg/kg, iv dosed three times per week to the end of treatment measured on day 10 (reference value: 22.4 +/- 1.3 g); type: organism-based; set-up: dose 3 mg/kg, route intravenous; details: in vivo
Mus musculus [14] = assay: Toxicity in human HT-29 cells xenografted mouse assessed as body weight level at 3 mg/kg, iv dosed three times per week to the end of treatment measured on day 14 (reference value: 22.7 +/- 1.5 g); type: organism-based; set-up: dose 3 mg/kg, route intravenous; details: in vivo
Mus musculus [15] = assay: Toxicity in human HT-29 cells xenografted mouse assessed as body weight level at 3 mg/kg, iv dosed three times per week to the end of treatment measured on day 17 (reference value: 22 +/- 1.7 g); type: organism-based; set-up: dose 3 mg/kg, route intravenous; details: in vivo
Mus musculus [16] = assay: Toxicity in human HT-29 cells xenografted mouse assessed as body weight level at 3 mg/kg, iv dosed three times per week to the end of treatment measured on day 21 (reference value: 21.2 +/- 1.6 g); type: organism-based; set-up: dose 3 mg/kg, route intravenous; details: in vivo
Mus musculus [17] = assay: Toxicity in human HT-29 cells xenografted mouse assessed as body weight level at 0.5 mg/kg, iv dosed three times per week to the end of treatment measured on day 3 (reference value: 20.7 +/- 1.2 g); type: organism-based; set-up: dose 0.5 mg/kg, route intravenous; details: in vivo
Mus musculus [18] = assay: Toxicity in human HT-29 cells xenografted mouse assessed as body weight level at 0.5 mg/kg, iv dosed three times per week to the end of treatment measured on day 7 (reference value: 21.7 +/- 1 g); type: organism-based; set-up: dose 0.5 mg/kg, route intravenous; details: in vivo
Mus musculus [19] = assay: Toxicity in human HT-29 cells xenografted mouse assessed as body weight level at 0.5 mg/kg, iv dosed three times per week to the end of treatment measured on day 10 (reference value: 22.4 +/- 1.3 g); type: organism-based; set-up: dose 0.5 mg/kg, route intravenous; details: in vivo
Mus musculus [20] = assay: Toxicity in human HT-29 cells xenografted mouse assessed as body weight level at 0.5 mg/kg, iv dosed three times per week to the end of treatment measured on day 14 (reference value: 22.7 +/- 1.5 g); type: organism-based; set-up: dose 0.5 mg/kg, route intravenous; details: in vivo
Mus musculus [21] = assay: Toxicity in human HT-29 cells xenografted mouse assessed as body weight level at 0.5 mg/kg, iv dosed three times per week to the end of treatment measured on day 17 (reference value: 22 +/- 1.7 g); type: organism-based; set-up: dose 0.5 mg/kg, route intravenous; details: in vivo
Mus musculus [22] = assay: Toxicity in human HT-29 cells xenografted mouse assessed as body weight level at 0.5 mg/kg, iv dosed three times per week to the end of treatment measured on day 21 (reference value: 21.2 +/- 1.6 g); type: organism-based; set-up: dose 0.5 mg/kg, route intravenous; details: in vivo
[23] = Cytotoxicity against human HCT116 cells after 72 hrs by sulforhodamine B assay; type: functional, cell-based, HCT-116; details: hct-116
HT-29 [24] = assay: Cytotoxicity against human HT-29 cells after 72 hrs by sulforhodamine B assay; type: functional, cell-based; details: ht-29
HCT-116 = assay: Potency index, ratio of IC50 for SN38 to IC50 for compound against human HCT116 cells after 72 hrs by sulforhodamine B assay; type: functional
[25] = Stability in pH 7.4 PBS buffer assessed as formation of carboxylate forms at 1 uM incubated at 37 degC by HPLC method; type: physicochemical; details: pH 7.4, 1 µM
[26] = Stability in human plasma assessed as lactone moieties level at 1 uM incubated at 37 degC after 3 hrs by HPLC method; type: ADME, cell-free; details: read-out: Stability
[27] = Solubility in water; type: physicochemical
Mus musculus [28] = assay: Toxicity in human HT-29 cells xenografted mouse assessed as lethal toxicity at 3 mg/kg, iv dosed three times per week to the end of treatment; type: organism-based; set-up: dose 3 mg/kg, route intravenous; details: in vivo
Mus musculus [29] = assay: Toxicity in human HT-29 cells xenografted mouse assessed as lethal toxicity at 0.5 mg/kg, iv dosed three times per week to the end of treatment; type: organism-based; set-up: dose 0.5 mg/kg, route intravenous; details: in vivo
Mus musculus [30] = assay: Toxicity in human HT-29 cells xenografted mouse assessed as body weight change at 3 mg/kg, iv dosed three times per week to the end of treatment (reference value: 12.7%); type: organism-based; set-up: dose 3 mg/kg, route intravenous; details: in vivo
HT-29 [31] = assay: Antitumor activity against human HT-29 cells xenografted in mouse assessed as relative tumor increment rate at 3 mg/kg, iv dosed three times per week to the end of treatment relative to untreated control; type: functional
HT-29 [32] = assay: Antitumor activity against human HT-29 cells xenografted in mouse assessed as relative tumor increment rate at 0.5 mg/kg, iv dosed three times per week to the end of treatment relative to untreated control; type: functional
Mus musculus [33] = assay: Toxicity in human HT-29 cells xenografted mouse assessed as induction of overt toxic symptoms at 0.5 mg/kg, iv dosed three times per week to the end of treatment; type: organism-based; set-up: dose 0.5 mg/kg, route intravenous; details: in vivo
Mus musculus [34] = assay: Toxicity in human HT-29 cells xenografted mouse assessed as induction of overt toxic symptoms at 3 mg/kg, iv dosed three times per week to the end of treatment; type: organism-based; set-up: dose 3 mg/kg, route intravenous; details: in vivo
Mus musculus [35] = assay: Toxicity in human HT-29 cells xenografted mouse assessed as induction of anaphylactic reaction at 0.5 mg/kg, iv dosed three times per week to the end of treatment; type: organism-based; set-up: dose 0.5 mg/kg, route intravenous; details: in vivo
Mus musculus [36] = assay: Toxicity in human HT-29 cells xenografted mouse assessed as induction of anaphylactic reaction at 3 mg/kg, iv dosed three times per week to the end of treatment; type: organism-based; set-up: dose 3 mg/kg, route intravenous; details: in vivo
HT-29 [37] = assay: Antitumor activity against human HT-29 cells xenografted in mouse assessed as tumor volume at 3 mg/kg, iv dosed three times per week to the end of treatment measured on day 3 (reference value: 168 +/- 46 mm3); type: functional
HT-29 [38] = assay: Antitumor activity against human HT-29 cells xenografted in mouse assessed as tumor volume at 3 mg/kg, iv dosed three times per week to the end of treatment measured on day 7 (reference value: 229 +/- 57 mm3); type: functional

Compound: CC[C@]1(O)c2cc3n(c(=O)c2COC(=O)[C@H]1OC)Cc1c-3nc2cc3c(cc2c1-c1ccncc1)OCO3.Cl
- Activity (HT-29 [1]): 52 mm3
- Activity (HT-29 [2]): 51 mm3
- Activity (HT-29 [3]): 15 mm3
- Activity (HT-29 [4]): 0 mm3
- Activity (HT-29 [5]): 156 mm3
- Activity (HT-29 [6]): 187 mm3
- Activity (HT-29 [7]): 262 mm3
- Activity (HT-29 [8]): 327 mm3
- Activity (HT-29 [9]): 380 mm3
- Activity (HT-29 [10]): 550 mm3
- Activity (Mus musculus [11]): 19.8 g
- Activity (Mus musculus [12]): 18.6 g
- Activity (Mus musculus [13]): 16.8 g
- Activity (Mus musculus [14]): 18.1 g
- Activity (Mus musculus [15]): 18.4 g
- Activity (Mus musculus [16]): 18.7 g
- Activity (Mus musculus [17]): 20.5 g
- Activity (Mus musculus [18]): 21.4 g
- Activity (Mus musculus [19]): 22 g
- Activity (Mus musculus [20]): 22.5 g
- Activity (Mus musculus [21]): 22.2 g
- Activity (Mus musculus [22]): 21.3 g
- IC50 [23]: 0.628 nM
- IC50 (HT-29 [24]): 3.41 nM
- Ratio IC50 (HCT-116): 20
- Stability [25]: Stable
- remaining at 3 h, 1 µM [26]: 55%
- solubility [27]: 1200 µg/mL
- Activity (Mus musculus [28]): Non-toxic
- Activity (Mus musculus [29]): Non-toxic
- Activity (Mus musculus [30]): -2.6%
- T/C (HT-29 [31]): 0%
- T/C (HT-29 [32]): 42.84%
- Activity (Mus musculus [33]): Non-toxic
- Activity (Mus musculus [34]): Non-toxic
- Activity (Mus musculus [35]): Non-toxic
- Activity (Mus musculus [36]): Non-toxic
- Activity (HT-29 [37]): 124 mm3
- Activity (HT-29 [38]): 93 mm3
